Laboratory results as given in publication PMC10590056, “Design and synthesis of cabotegravir derivatives bearing 1,2,3-triazole and evaluation of anti-liver cancer activity” (Frontiers in Pharmacology, 2023).
“And” between values parts separate entries of the source, which are not always exact repeats. Identical values can stand only once. Like-named read-outs stand apart in the source and are kept apart here.

What was measured:
Type in all cases: cell-based
[1] = test system: Bcl-2, Bax, cleaved caspase-9, cleaved caspase-3, cleaved PARP in HepG2 cells; experiment: Western blot of mitochondrial apoptotic proteins; settings: for Bax levels / Bax/Bcl-2 ratio / Bcl-2 protein levels: HepG2, 2, 4 or 8 μM, 24 h; for Expression of cleaved PARP / Expression of cleaved caspase-3 / Expression of cleaved caspase-9: HepG2, vs control
Description: After being pretreated with either KJ-5 or KJ-12 at concentrations of 2, 4, or 8 μM for 24 h, the cells were harvested and lysed using an ice-cold cell lysis buffer from Beyotime Biotechnology (Shanghai, China). The proteins were mixed with a loading buffer and denatured by heating at 95°C–100°C for 5–10 min. Equal amounts of protein were loaded onto a 10% SDS-PAGE gel along with a molecular weight marker and separated by electrophoresis for 2 h. The separated proteins were transferred onto a PVDF membrane, which was blocked with 5% non-fat milk for non-specific binding sites on the membrane. Then, the membrane was incubated with primary antibodies at 4°C overnight. Following incubation with the primary antibody, the membrane was incubated with HRP-conjugated goat anti-rabbit or goat anti-mouse IgG at 37°C for 1 h. Protein bands were visualized on the PVDF membrane using an ECL hypersensitive chemiluminescence solution and a Bio-Rad gel imaging and analysis system.

[2] = test system: p-H2AX in HepG2 cells; experiment: H2AX phosphorylation by immunofluorescence and Western blotting; settings: HepG2, 24 h
Description: HepG2 cells were plated in laser confocal dishes (Nest, China), followed by the addition of KJ-5 or KJ-12 for 24 h. Then, 4% paraformaldehyde was added to each laser confocal dish for 20 min after rinsing with PBS. Before the goat serum was added to block for 1 h, 0.5% Triton X-100 was used to penetrate HepG2 for 30 min. Subsequently, the cells were incubated with p-H2AX (Cell Signaling Technology, MA, United States) at a 1:800 dilution at 4°C overnight. The cells were rinsed with PBS and incubated with Alexa Fluor 488 (Proteintech, Wuhan, China) at a 1:1000 dilution in dark at room temperature for 1 h. DAPI was used to stain the cell nucleus for 5 min. Then, the cells were rinsed with PBS before observing the cells under a laser confocal microscope (Nikon, Tokyo, Japan).
After being pretreated with either KJ-5 or KJ-12 at concentrations of 2, 4, or 8 μM for 24 h, the cells were harvested and lysed using an ice-cold cell lysis buffer from Beyotime Biotechnology (Shanghai, China). The proteins were mixed with a loading buffer and denatured by heating at 95°C–100°C for 5–10 min. Equal amounts of protein were loaded onto a 10% SDS-PAGE gel along with a molecular weight marker and separated by electrophoresis for 2 h. The separated proteins were transferred onto a PVDF membrane, which was blocked with 5% non-fat milk for non-specific binding sites on the membrane. […]

[3] = test system: HepG2 cells; experiment: Annexin V-FITC/PI staining for cell apoptosis (flow cytometry); settings: 24 h; for Proportion of apoptotic cells: Annexin-V/PI; for Cell apoptosis (in words): HepG2, 2, 4, 8 μM
Description: HepG2 cells were plated in a 6-well plate at a density of 5 × 10^6 cells/well and incubated for 24 h. Then, the original culture medium was replaced with 2 mL DMEM containing KJ-5 or KJ-12 (2, 4, and 8 μM) and incubated for 24 h. After incubation with KJ-5 or KJ-12, the cells were washed with cold PBS and then resuspended in 100 µL binding buffer at a concentration of 1 × 10^6 cells/mL. Then, 5 μl of FITC Annexin V and 5 µl of PI were added to the solution. The cells were gently vortexed and incubated for 15 min at room temperature (25°C) in the dark. Subsequently, 400 µL binding buffer was added to each tube, and the samples were analyzed by flow cytometry (BD Accuri™ C6 Plus) within 1 h.

[4] = test system: HepG2 cells; experiment: Transwell invasion assay (Matrigel); settings: HepG2, 24 h treatment, vs control
Description: HepG2 cells were treated with either KJ-5 or KJ-12 for 24 h. Then, the cells were suspended and seeded into the upper chamber of a 24-well Transwell plate (Corning Inc., United States) in serum-free medium. The cells were cultured for 24 h at 37°C; a medium containing 20% FBS as a chemoattractant was added to the lower chamber. HepG2 cells that had invaded through the membrane were fixed with 4% paraformaldehyde for 20 min and stained with 0.1% crystal violet. Five random fields were then imaged and quantified using an inverted fluorescence microscope (Axio Observer3, Germany). To assess invasion, transwell assays were performed in a similar manner, with the exception of coating the upper chamber of the Transwell with 100 μL of diluted Matrigel solution per well.

[5] = test system: MCF-7 cells; experiment: MTT assay for cell proliferation, MCF-7; parameters: key to Inhibitory rate / Inhibition rate: inhibition rate = 1 - mean A490 sample/mean A490 control (fraction); settings: for inhibition at 16 µM: MCF7, preliminary screening, MCF-7, 16 μM, 48 h, mean±SD, read-out: Inhibition rate (16μM), 48 h, MCF-7
Outline: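 Proliferation read-out is MTT reduction (4 h) after 48 h treatment with KJ-5 or KJ-12 across 0, 1, 2, 4, 8, 16 and 32 μM. Cultures in 10% FBS DMEM, 37 °C, plated at 10^5 cells/mL; A490 of DMSO-dissolved formazan compared with untreated control.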

[6] = Homo sapiens, MCF7, 48 h, MCF-7, 48 h, MTT, read-out: IC50 MCF-7
[7] = Homo sapiens, MCF7, MCF-7, one of three experiments, unit inferred, read-out: IC50, single experiment, MCF-7
[8] = MCF-7, group 1 (concentration), fraction, single experiments
[9] = MCF-7, group 1 (concentration), single experiments
[10] = MCF-7, group 2 (concentration), fraction, single experiments
[11] = MCF-7, group 2 (concentration), single experiments
[12] = MCF-7, group 4 (concentration), fraction, single experiments
[13] = MCF-7, group 4 (concentration), single experiments
[14] = MCF-7, group 8 (concentration), fraction, single experiments
[15] = MCF-7, group 8 (concentration), single experiments
[16] = MCF-7, group 16 (concentration), fraction, single experiments
[17] = MCF-7, group 16 (concentration), single experiments
[18] = MCF-7, group 32 (concentration), fraction, single experiments
[19] = MCF-7, group 32 (concentration), single experiments
[20] = MCF-7, one of three experiments, unit inferred, read-out: IC50, single experiment, MCF-7
[21] = MCF-7, fraction, per experiment
[22] = given as fraction, second of three experiments
[23] = given as fraction, third of three experiments

SMILES	Bax levels [1]	Bax/Bcl-2 ratio [1]	Bcl-2 protein levels [1]	Expression of cleaved PARP [1]	Expression of cleaved caspase-3 [1]	Expression of cleaved caspase-9 [1]	Expression of p-H2AX (DNA damage marker) [2]	Proportion of apoptotic cells ([3]; HepG2, 2 μM)	Proportion of apoptotic cells ([3]; HepG2, 4 μM)	Proportion of apoptotic cells ([3]; HepG2, 8 μM)	Cell apoptosis (in words) [3]	Invasion of HepG2 cells (transwell with Matrigel) [4]	IC50 [5, 6]	IC50 [5, 7]	inhibition at 16 µM ([5]; Homo sapiens, unit inferred)	Inhibitory rate [5, 8]	ODtreated/ODcontrol [5, 9]	Inhibitory rate [5, 10]	ODtreated/ODcontrol [5, 11]	Inhibitory rate [5, 12]	further results
COc1c2n(cc(C(=O)Nc3cccc(-c4cn(-c5cc(C(F)(F)F)cc(C(F)(F)F)c5)nn4)c3)c1=O)C[C@H]1OC[C@H](C)N1C2=O [KJ-5]	increased	increased	decreased	significantly increased	significantly increased	significantly increased	increased the expression of p-H2AX	21.8 ± 1.3%	30.9 ± 1.4%	52.7 ± 1.7%	significantly caused cell apoptosis in a concentration-dependent manner	significantly impaired	8.41 ± 0.14 µM	8.56 µM	62.6 ± 1.76%	0.147 and 0.1313 and 0.1401	0.853 and 0.8687 and 0.8599	0.1769 and 0.1986 and 0.2186	0.8231 and 0.8014 and 0.7814	0.4303 and 0.4175 and 0.4002	ODtreated/ODcontrol [5, 13]: 0.5697 and 0.5825 and 0.5998; Inhibitory rate [5, 14]: 0.509 and 0.5265 and 0.5019; ODtreated/ODcontrol [5, 15]: 0.491 and 0.4735 and 0.4981; Inhibitory rate [5, 16]: 0.5958 and 0.5893 and 0.6098; ODtreated/ODcontrol [5, 17]: 0.4042 and 0.4107 and 0.3902; Inhibitory rate [5, 18]: 0.7196 and 0.7385 and 0.7334; ODtreated/ODcontrol [5, 19]: 0.2804 and 0.2615 and 0.2666; IC50 [5, 20]: 8.29 µM and 8.37 µM; Inhibitory rate [5, 21]: 0.6368; ODtreated/ODcontrol [5, 21]: 0.3632; Inhibitory rate [5, 22]: 0.6364; Inhibition rate [5, 23]: 0.6061; ODtreated/ODcontrol ([5]; second of three experiments): 0.3635; ODtreated/ODcontrol ([5]; third of three experiments): 0.3939
COc1c2n(cc(C(=O)Nc3cccc(-c4cn(-c5c(C)cc(C)cc5C)nn4)c3)c1=O)C[C@H]1OC[C@H](C)N1C2=O [KJ-12]	increased	increased	decreased	significant increase	significant increase	significant increase	increased the expression of p-H2AX	21.2 ± 1.4%	30.5 ± 1.1%	44.4 ± 1.9%	significantly caused cell apoptosis in a concentration-dependent manner	significantly impaired	8.55 ± 0.6 µM	9.23 µM	54.7 ± 1.79%	0.2053 and 0.2025 and 0.1943	0.7947 and 0.7975 and 0.8057	0.2385 and 0.2481 and 0.2879	0.7615 and 0.7519 and 0.7121	0.3137 and 0.3313 and 0.3802	ODtreated/ODcontrol [5, 13]: 0.6863 and 0.6687 and 0.6198; Inhibitory rate [5, 14]: 0.4877 and 0.4713 and 0.472; ODtreated/ODcontrol [5, 15]: 0.5123 and 0.5287 and 0.528; Inhibitory rate [5, 16]: 0.5949 and 0.6244 and 0.5636; ODtreated/ODcontrol [5, 17]: 0.4051 and 0.3756 and 0.4364; Inhibitory rate [5, 18]: 0.7215 and 0.7706 and 0.7971; ODtreated/ODcontrol [5, 19]: 0.2785 and 0.2294 and 0.2029; IC50 [5, 20]: 8.35 µM and 8.08 µM; Inhibitory rate [5, 21]: 0.5407; ODtreated/ODcontrol [5, 21]: 0.4593; Inhibitory rate [5, 22]: 0.5326; Inhibition rate [5, 23]: 0.5669; ODtreated/ODcontrol ([5]; second of three experiments): 0.4674; ODtreated/ODcontrol ([5]; third of three experiments): 0.4331
